Test results taken from publication PMC5449446, “Metabolic Value Chemoattractants Are Preferentially Recognized at Broad Ligand Range Chemoreceptor of Pseudomonas putida KT2440” (Frontiers in Microbiology, 2017).

How the values were obtained:
PcaY_PP-LBD = target: T1, PcaY_PP-LBD (Pseudomonas putida, UniProt Q88JK6); test: biochemical; type: binding, Pseudomonas putida KT2440; conditions: ITC at 25°C, 25 μM protein, One Binding Site model; means and SD of three experiments
T1 construct: His-tag (from the pET28b vector; inferred from NdeI/BamHI cloning and HisTrap purification) (N); made in house; host or cells: Escherichia coli BL21 (DE3)
Procedure: Experiments were carried out at 25°C using a VP-ITC titration calorimeter (Microcal Inc., Northampton, Massachusetts). […] Obtained data were corrected with the heat changes measured for the injection of ligand into buffer. Data were normalized with the protein concentration (Bradford assay) and fitted with the “One Binding Site” model of the MicroCal version of the ORIGIN 7.0 software (OriginLab Corporation, Northampton, MA, United States), leaving all parameters floating.

MCP2983 = system: MCP2983; design: method as in Ni et al., 2015; conditions: ref Ni et al., 2015; cited from earlier work
Tar-LBD = system: Tar-LBD; design: method as in Milligan and Koshland, 1993; conditions: estimated; ref Milligan and Koshland, 1993; cited from earlier work
McpP = target: McpP; design: method as in ref (6) (a number printed in a supplementary file, which may have a reference list of its own: not looked up in the article's list); conditions: ITC, purified recombinant LBD; ref (6); cited from earlier work
McpS = target: McpS; design: method as in ref (7-9) (a number printed in a supplementary file, which may have a reference list of its own: not looked up in the article's list); conditions: ITC, purified recombinant LBD; ref (7-9); cited from earlier work
[1] = target: the molecule itself; test: AUC; multi-speed, multi-wavelength sedimentation equilibrium, ligand-free protein, six concentrations 15-280 uM, 12,000, 14,000 and 18,000 rpm, 10°C, analysis buffer pH 8.0; global fit to a monomer-dimer self-association model (SEDPHAT); dimer to monomers
[2] = target: the molecule itself; test: AUC; sedimentation velocity with saturating quinate or shikimate (400 uM), 40,000 rpm, 10°C, analysis buffer (5 mM PIPES, 5 mM MES, 5 mM Tris-HCl, pH 8.0)

O=C(O)/C=C(/CC(=O)O)C(=O)O [cis-aconitate]
KD (PcaY_PP-LBD): did not show any binding
binding to recombinant LBD (MCP2983): recognized

N[C@@H](CC(=O)O)C(=O)O [aspartate]
decrease of the dimer self-association constant, factor (Tar-LBD): around 100

CC(=O)O [Acetate]
Kd (McpP): 34 µM
Kd (McpS): 574 µM

B1: PcaY_PP-LBD, recombinant ligand binding domain of the PcaY_PP (PP2643) chemoreceptor of Pseudomonas putida KT2440 (domain or fragment, UniProt Q88JK6 44-196, looked up)
chain: GSDQQITELDQTAHQSDRLNNALLMAIRSSANVSSGFIEQLGGHDESAGKRMALSVELNNKSQALVDEFVENAREPALRGLATELQATFAEYAKAVAGQREATRQRSLEQYFKVNSDAGNAMGRLQTLRQQLVTTLSERGQQIMLESDRRLAR
notes: Cloned NdeI/BamHI into pET28b with a stop codon in the reverse primer; No tag removal is described
Kd [1]: 57.5 µM
stoichiometry N [2]: 2
